One test has as its target Procathepsin L (Homo sapiens, UniProt P07711). Put plainly: CTSL1 protease inhibition – biochemical, QFRET, 1536-well, counter-screen for M1/M17 aminopeptidase inhibitor project, dose response (AID 2214).
A further test addresses T1, Aspartyl aminopeptidase (Plasmodium falciparum 3D7, UniProt Q8I2J3).
T1 sequence (Q8I2J3 whole entry): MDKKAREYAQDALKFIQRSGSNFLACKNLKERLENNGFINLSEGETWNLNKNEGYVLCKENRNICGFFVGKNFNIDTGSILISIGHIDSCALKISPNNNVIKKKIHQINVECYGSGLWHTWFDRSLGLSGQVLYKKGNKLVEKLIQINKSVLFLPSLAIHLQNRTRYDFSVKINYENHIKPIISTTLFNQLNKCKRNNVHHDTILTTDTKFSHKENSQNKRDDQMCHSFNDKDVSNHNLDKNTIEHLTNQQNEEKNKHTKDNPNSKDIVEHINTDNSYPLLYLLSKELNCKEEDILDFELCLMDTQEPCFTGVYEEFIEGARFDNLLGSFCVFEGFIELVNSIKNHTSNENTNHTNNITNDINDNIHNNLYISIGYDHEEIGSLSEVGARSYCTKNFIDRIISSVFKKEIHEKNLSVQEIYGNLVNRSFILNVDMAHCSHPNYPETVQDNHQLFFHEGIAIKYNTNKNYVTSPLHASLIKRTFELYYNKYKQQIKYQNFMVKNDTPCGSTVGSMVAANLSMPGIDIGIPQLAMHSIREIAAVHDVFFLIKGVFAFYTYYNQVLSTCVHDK
Put plainly: Counterscreen for inhibitors of M1 and M17 aminopeptidases: QFRET-based biochemical high throughput dose response assay for inhibitors of the Plasmodium falciparum M18 Aspartyl Aminopeptidase (PFM18AAP). [Related PubChem assays: 1619 (Screening assay (M17LAP inhibitors).), 1445 (Screening assay (M1AAP inhibitors).)].

A further test has as its target T2, Leucine aminopeptidase (Plasmodium falciparum 3D7, UniProt Q8IL11).
T2 sequence (Q8IL11 whole entry): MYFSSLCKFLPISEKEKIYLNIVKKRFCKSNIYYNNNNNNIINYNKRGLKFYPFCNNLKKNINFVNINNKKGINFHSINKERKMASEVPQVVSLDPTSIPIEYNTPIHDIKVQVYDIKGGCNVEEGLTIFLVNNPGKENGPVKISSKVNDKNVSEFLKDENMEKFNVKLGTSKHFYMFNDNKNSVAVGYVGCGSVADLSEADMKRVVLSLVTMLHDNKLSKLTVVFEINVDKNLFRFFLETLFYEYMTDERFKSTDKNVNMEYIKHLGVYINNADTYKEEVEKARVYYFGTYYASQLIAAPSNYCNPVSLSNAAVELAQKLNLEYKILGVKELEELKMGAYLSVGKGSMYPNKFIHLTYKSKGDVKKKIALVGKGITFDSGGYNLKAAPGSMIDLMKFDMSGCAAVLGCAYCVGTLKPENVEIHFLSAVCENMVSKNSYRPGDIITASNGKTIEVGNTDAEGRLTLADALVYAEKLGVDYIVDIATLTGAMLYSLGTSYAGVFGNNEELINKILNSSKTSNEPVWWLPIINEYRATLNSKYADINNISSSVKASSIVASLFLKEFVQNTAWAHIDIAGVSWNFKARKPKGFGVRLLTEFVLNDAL
Put plainly: P. falciparum M17LAP inhibitors, primary screen, biochemical, fluorogenic H-Leu-NHMec substrate, 1536-well (AID 1619). It counts as functional.

A short description of test [1]: antiviral protection against BTV-induced cell death – arbovirus, BSR cells, confirmation (AID 1250).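 Also: protection from viral cytopathic effect measured as cell viability by ATP luminescence.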 The format is functional.
Test [2] deals with T3, Calpain-2 catalytic subunit (Sus scrofa, UniProt P43367).
T3 sequence (P43367 whole entry): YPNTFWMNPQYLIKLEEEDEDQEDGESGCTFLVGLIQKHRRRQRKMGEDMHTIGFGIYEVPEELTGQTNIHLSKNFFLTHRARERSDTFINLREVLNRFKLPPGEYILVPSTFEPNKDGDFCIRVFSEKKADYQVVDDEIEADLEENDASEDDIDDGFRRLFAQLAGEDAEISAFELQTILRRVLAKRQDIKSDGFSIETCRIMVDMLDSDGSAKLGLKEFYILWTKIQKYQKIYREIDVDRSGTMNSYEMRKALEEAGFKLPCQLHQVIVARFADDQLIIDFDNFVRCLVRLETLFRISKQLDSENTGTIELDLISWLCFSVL
The test can be described thus: m-calpain protease blockers, concentration series – biochemical, fluorogenic peptide substrate, dose response (AID 1420). It counts as functional.

Test [3] in a line: HEK-293T viability loss after treatment – luminescence, T-cell screen hits, cytotoxicity control for TCR NF-kB inhibitor project, dose response (AID 489026).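 Also: cells exposed to compound about 14 hours before the viability readout.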 The format is functional, cell-based.
In test [4] the test system is HEK293. The test can be described thus: inhibition of NOD1-driven NF-kB reporter – cell-based, luminescence, uHTS, primary screen (AID 1578). It counts as functional. The settings on record: Homo sapiens.
The test system of test [5] is HEK293. Put plainly: cells. The format is functional, cell-based. The settings on record: Homo sapiens.
For test [6], the target named is T4, Corticotropin-releasing factor receptor 2/Corticotropin-releasing factor-binding protein (Homo sapiens, UniProt P24387+Q13324).
T4 sequence (Q13324 whole entry): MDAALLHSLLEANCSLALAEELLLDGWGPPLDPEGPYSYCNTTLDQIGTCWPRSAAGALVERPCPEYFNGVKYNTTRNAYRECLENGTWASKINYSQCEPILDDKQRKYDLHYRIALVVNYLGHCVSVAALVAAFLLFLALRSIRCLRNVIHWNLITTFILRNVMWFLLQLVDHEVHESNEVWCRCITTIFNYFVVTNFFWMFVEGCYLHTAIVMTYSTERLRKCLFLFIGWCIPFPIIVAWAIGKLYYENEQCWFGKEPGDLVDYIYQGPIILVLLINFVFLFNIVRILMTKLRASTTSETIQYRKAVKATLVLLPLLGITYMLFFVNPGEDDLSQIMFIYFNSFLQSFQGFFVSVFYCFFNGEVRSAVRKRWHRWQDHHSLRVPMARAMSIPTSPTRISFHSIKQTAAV
T4 sequence (P24387 whole entry): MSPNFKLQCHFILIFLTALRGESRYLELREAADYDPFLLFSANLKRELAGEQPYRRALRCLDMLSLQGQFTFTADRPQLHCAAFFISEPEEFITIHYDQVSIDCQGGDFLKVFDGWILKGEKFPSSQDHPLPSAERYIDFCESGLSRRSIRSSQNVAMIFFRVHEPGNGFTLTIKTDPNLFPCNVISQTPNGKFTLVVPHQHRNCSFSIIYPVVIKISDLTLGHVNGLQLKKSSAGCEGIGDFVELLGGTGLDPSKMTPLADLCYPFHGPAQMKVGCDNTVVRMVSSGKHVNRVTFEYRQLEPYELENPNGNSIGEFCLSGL
The test can be described thus: Dose Response confirmation of uHTS hits for small molecule antagonists of the CRF-binding protein and CRF-R2 receptor complex. The format is functional. The settings on record: read-out: IC50_Mean.

The target of a further test is Tumor necrosis factor (Homo sapiens, UniProt P01375). Put plainly: analog potency on TNFa NF-kB signaling – cell-based, revised, SAR follow-up (AID 2337). The format is functional.
Sequence of Tumor necrosis factor (P01375 whole entry): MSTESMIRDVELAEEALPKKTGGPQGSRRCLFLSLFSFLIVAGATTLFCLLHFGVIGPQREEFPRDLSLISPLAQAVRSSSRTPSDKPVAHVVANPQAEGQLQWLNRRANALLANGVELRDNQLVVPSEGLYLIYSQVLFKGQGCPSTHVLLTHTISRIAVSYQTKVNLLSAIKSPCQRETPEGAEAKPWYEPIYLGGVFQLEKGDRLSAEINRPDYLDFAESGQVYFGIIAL
Test [7] concerns the target T4, Corticotropin-releasing factor receptor 2/Corticotropin-releasing factor-binding protein. The test can be described thus: activators of CRF receptor 2 with binding protein – uHTS hits, confirmation (AID 602473). The format is functional. Particulars: read-out: EC50_Mean.
Test [8] relates to HEK293. Put plainly: cells. The format is functional, cell-based. Particulars: Homo sapiens. This is another data set of the same source.
Test [9] relates to HEK293. The test can be described thus: NOD2 signaling inhibitors in MDP-stimulated cells, cell-based, uHTS, luminescence (AID 2001). The settings on record: Homo sapiens. It counts as functional.
Test [10] deals with T5, Nucleotide-binding oligomerization domain-containing protein 1 (Homo sapiens, UniProt Q9Y239).
T5 sequence (Q9Y239 whole entry): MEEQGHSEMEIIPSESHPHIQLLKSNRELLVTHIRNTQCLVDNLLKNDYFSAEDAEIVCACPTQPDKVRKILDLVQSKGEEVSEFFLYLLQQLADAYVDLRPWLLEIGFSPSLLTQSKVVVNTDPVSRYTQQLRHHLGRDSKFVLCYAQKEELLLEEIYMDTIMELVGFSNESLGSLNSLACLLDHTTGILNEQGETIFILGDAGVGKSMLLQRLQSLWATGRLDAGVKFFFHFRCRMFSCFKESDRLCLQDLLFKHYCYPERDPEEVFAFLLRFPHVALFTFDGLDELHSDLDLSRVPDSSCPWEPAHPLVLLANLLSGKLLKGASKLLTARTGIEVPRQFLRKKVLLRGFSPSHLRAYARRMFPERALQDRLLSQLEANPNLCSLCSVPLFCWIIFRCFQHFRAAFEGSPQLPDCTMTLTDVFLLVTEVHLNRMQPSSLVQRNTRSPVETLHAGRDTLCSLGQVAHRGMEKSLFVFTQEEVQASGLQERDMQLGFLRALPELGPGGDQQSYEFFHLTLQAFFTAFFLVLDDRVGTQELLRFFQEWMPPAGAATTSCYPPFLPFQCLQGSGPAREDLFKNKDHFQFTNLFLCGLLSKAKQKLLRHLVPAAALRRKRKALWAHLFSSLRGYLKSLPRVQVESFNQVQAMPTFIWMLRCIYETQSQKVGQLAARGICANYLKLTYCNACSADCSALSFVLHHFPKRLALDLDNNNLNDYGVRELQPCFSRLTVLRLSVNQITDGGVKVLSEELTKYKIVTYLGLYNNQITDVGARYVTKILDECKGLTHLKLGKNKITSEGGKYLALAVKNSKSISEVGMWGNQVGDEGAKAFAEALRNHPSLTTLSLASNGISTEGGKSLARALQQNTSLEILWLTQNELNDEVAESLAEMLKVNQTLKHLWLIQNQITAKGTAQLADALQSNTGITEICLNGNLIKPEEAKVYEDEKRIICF
The test can be described thus: blockers of NOD1 pathway activity – revised, SAR follow-up (AID 2333). It counts as functional.

For test [11], the system named is HEK293. The test can be described thus: cells. Particulars: Homo sapiens.
Test [12] is described as follows: NIH3T3 cell viability loss – ATP luminescence, mouse fibroblasts, counter-screen, dose response (AID 2010).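 Also: cells exposed to compound for about 90 hours before reading.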 It counts as functional, cell-based.
Test [13] in a line: Trypanosoma cruzi growth suppression in host cells – NIH3T3 host cells, beta-gal luminescence, confirmation (AID 2044).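 Also: intracellular parasites grown in NIH/3T3 mouse fibroblasts as host cells; luminescent beta-galactosidase reporter signal from transgenic T. cruzi replicating inside host cells; inhibitors lower the luminescence signal.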 The format is functional, cell-based.

Active and inactive are the calls of the source.

Sequence of Procathepsin L (P07711 whole entry): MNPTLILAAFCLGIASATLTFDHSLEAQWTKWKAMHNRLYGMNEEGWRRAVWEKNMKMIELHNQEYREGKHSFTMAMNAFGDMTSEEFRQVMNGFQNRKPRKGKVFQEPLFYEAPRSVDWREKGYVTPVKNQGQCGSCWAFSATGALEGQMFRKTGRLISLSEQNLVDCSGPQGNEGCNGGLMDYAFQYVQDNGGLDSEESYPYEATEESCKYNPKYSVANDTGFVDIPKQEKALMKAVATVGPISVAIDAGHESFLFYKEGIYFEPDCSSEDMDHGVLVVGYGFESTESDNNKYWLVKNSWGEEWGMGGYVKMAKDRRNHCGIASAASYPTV

In the case of `O=C(CSc1nccc(=O)[nH]1)Nc1ccc(F)c(Cl)c1`, the IC50 was > 59.6 µM (not active) on Procathepsin L, > 73.5 µM (not active) against Aspartyl aminopeptidase and 6.03 µM (active) on Leucine aminopeptidase.

In the case of `CC1CCCCN1c1nnc(NC(=O)c2cc(-c3ccc(Br)cc3)on2)s1` (stereo not drawn), the IC50 in [1] is 29 µM (active).

As for `COC(=O)/C=C/c1sc2nc(C)cc(C)c2c1/N=C/N(C)C`, the IC50 in test [1] was 34.4 µM (active).

`COc1ccc(OC)c(NC(=O)C2C(C(=O)O)C3(Cl)C(Cl)=C(Cl)C2(Cl)C3(Cl)Cl)c1` (stereo not drawn): the IC50 against Procathepsin L was > 59.6 µM (not active); at Aspartyl aminopeptidase it was > 73.5 µM (not active); at Leucine aminopeptidase it was < 1 µM (active).

Regarding `COC(=O)c1c(-c2ccco2)csc1NC(=O)C1CC=CCC1C(=O)O` (stereo not drawn), the figures for the IC50 against Procathepsin L, at Aspartyl aminopeptidase and at Leucine aminopeptidase were > 59.6 µM (not active), > 73.5 µM (not active) and 1.39 µM (active), respectively.

`CCc1ccc(Nc2nnc(SC3CCOC3=O)s2)cc1` (stereo not drawn): the IC50 was > 59.6 µM (not active) against Procathepsin L, > 73.5 µM (not active) against Aspartyl aminopeptidase and 2.64 µM (active) on Leucine aminopeptidase.

For `O=C(Nc1ccc(Oc2cccnc2)nc1)c1ccc(C(F)(F)F)cc1`, the IC50 in [2] is 48.1 µM (not active); in test [3], > 80 µM (inactive); with HEK293 [5], > 20 µM (inactive); in [6], > 47.1 µM (inactive); at Tumor necrosis factor it was 2.79 µM (active); with HEK293 [8], 4.32 µM (active). Moreover, the IC50 in the test on HEK293 [9] is 8.57 µM (active); in test [10], 2.26 µM (active); with HEK293 [11], > 20 µM (inactive). For the same molecule, the EC50 in the test with HEK293 [4] is 2.4 µM (active); in test [7] it was > 53 µM (inactive).

Take `S=C(NCc1ccccc1)N1CCn2cccc2C1c1cccnc1` (stereo not drawn): the EC50 in [12] was > 60 µM (inconclusive); in test [13] it was 2.95 µM (active). For the same molecule, in test [1], the IC50 is 22.1 µM (active).

For the origin of these results see ChEMBL document CHEMBL1201862, “PubChem BioAssay data set” (2004).
